Experimental data reported in ChEMBL document CHEMBL1201862, “PubChem BioAssay data set” (2004).
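Method: 48-hour compound exposure of cells in 96-well plates, five concentrations, linear interpolation of endpoints. At the GI50, growth is halved.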 Activity calls are given as the source filed them. Rule as the data show it: active = GI50 up to about 1.1 µM and inactive = higher.

Key:
Assay in all cases: NCI-60 cell line screen, 48 h
UACC-62 = test system: UACC-62
RXF 393 = test system: RXF 393
SNB-78 = test system: SNB-78
TK-10 = test system: TK-10
SN12C = test system: SN12C
CCRF-CEM = test system: CCRF-CEM
HCT-116 = test system: HCT-116
KM12 = test system: KM12
SW-620 = test system: SW-620
U-251 = test system: U-251
786-0 = test system: 786-0
HT-29 = test system: HT-29
K562 = test system: K562
UO-31 = test system: UO-31
ACHN = test system: ACHN
SNB-19 = test system: SNB-19
LOX IMVI = test system: LOX IMVI
OVCAR-3 = test system: OVCAR-3

Row | Structure (SMILES) | GI50 (UACC-62) | GI50 (RXF 393) | GI50 (SNB-78) | GI50 (TK-10) | GI50 (SN12C) | GI50 (CCRF-CEM) | GI50 (HCT-116) | GI50 (KM12) | GI50 (SW-620) | GI50 (U-251) | GI50 (786-0) | GI50 (HT-29) | GI50 (K562) | GI50 (UO-31) | GI50 (ACHN) | GI50 (SNB-19) | GI50 (LOX IMVI) | GI50 (OVCAR-3)
1 | COc1cc([C@@H]2c3cc4c(cc3[C@@H](NCc3ccccc3)C3COC(=O)[C@@H]32)OCO4)cc(OC)c1O (stereo partly drawn) | 3.83 µM (inactive) | 20.8 µM (inactive) | 34.9 µM (inactive) | 26 µM (inactive) | 3.28 µM (inactive) | 3.13 µM (inactive) | 14 µM (inactive) | 12.8 µM (inactive) | 8.57 µM (inactive) | 3.71 µM (inactive) | 3.47 µM (inactive) | 16.4 µM (inactive) | 16.6 µM (inactive) | 7.08 µM (inactive) | 1.17 µM (inactive) | 4.86 µM (inactive) | 5.25 µM (inactive) | 17.8 µM (inactive)
2 | O=[N+]([O-])c1ccc(Sc2c3ccccc3nc3cc(Cl)ccc23)cc1 | > 10 µM (inactive) | 37.5 µM (inactive) | > 10 µM (inactive) | > 10 µM (inactive) | > 10 µM (inactive) | 32.9 µM (inactive) | > 10 µM (inactive) | > 10 µM (inactive) | > 10 µM (inactive) | > 10 µM (inactive) | > 10 µM (inactive) | > 100 µM (inactive) | > 10 µM (inactive) | > 10 µM (inactive) | > 10 µM (inactive) | > 10 µM (inactive) | > 10 µM (inactive) | > 10 µM (inactive)
3 | CC1/C(=N\O)CC(c2ccccc2)N(C)C1c1ccccc1 (stereo not drawn) | > 100 µM (inactive) | > 100 µM (inactive) | > 100 µM (inactive) | > 100 µM (inactive) | > 100 µM (inactive) | > 100 µM (inactive) | > 100 µM (inactive) | > 100 µM (inactive) | > 100 µM (inactive) | > 100 µM (inactive) | > 100 µM (inactive) | > 100 µM (inactive) | > 100 µM (inactive) | > 100 µM (inactive) | > 100 µM (inactive) | > 100 µM (inactive) | > 100 µM (inactive) | > 100 µM (inactive)
4 | CC1=CC(=O)NCCN1C | > 100 µM (inactive) | > 100 µM (inactive) | > 100 µM (inactive) | > 100 µM (inactive) | > 100 µM (inactive) | 75.2 µM (inactive) | > 100 µM (inactive) | > 100 µM (inactive) | 24.2 µM (inactive) | > 100 µM (inactive) | > 100 µM (inactive) | > 100 µM (inactive) | 73.5 µM (inactive) | > 100 µM (inactive) | > 100 µM (inactive) | > 100 µM (inactive) | 62.7 µM (inactive) | > 100 µM (inactive)
5 | O=C(NC1C(=O)NNC1c1cccc([N+](=O)[O-])c1)c1ccccc1 (stereo not drawn) | > 100 µM (inactive) | > 100 µM (inactive) | > 100 µM (inactive) | > 100 µM (inactive) | > 100 µM (inactive) | > 100 µM (inactive) | > 100 µM (inactive) | > 100 µM (inactive) | > 100 µM (inactive) | > 100 µM (inactive) | > 100 µM (inactive) | > 100 µM (inactive) | – | > 100 µM (inactive) | > 100 µM (inactive) | > 100 µM (inactive) | > 100 µM (inactive) | > 100 µM (inactive)
6 | O=C(CC(=O)c1cccc2ccccc12)C(=O)Nc1ccc(Cl)cc1 | > 100 µM (inactive) | – | > 100 µM (inactive) | > 100 µM (inactive) | > 100 µM (inactive) | > 100 µM (inactive) | > 100 µM (inactive) | > 100 µM (inactive) | > 100 µM (inactive) | > 100 µM (inactive) | > 100 µM (inactive) | > 100 µM (inactive) | > 100 µM (inactive) | > 100 µM (inactive) | > 100 µM (inactive) | > 100 µM (inactive) | > 100 µM (inactive) | > 100 µM (inactive)
7 | COc1cc(C2c3cc4c(cc3C(NCC(O)CO)C3COC(=O)[C@H]23)OCO4)cc(OC)c1OC (stereo partly drawn) | 0.0973 µM (active) | – | 0.0944 µM (active) | > 100 µM (inactive) | 0.466 µM (active) | 0.407 µM (active) | – | 0.217 µM (active) | 0.51 µM (active) | 0.236 µM (active) | 0.578 µM (active) | 0.34 µM (active) | 0.361 µM (active) | 4.37 µM (inactive) | 0.69 µM (active) | 0.356 µM (active) | 0.146 µM (active) | –
8 | CO[C@H](C(=O)O[C@H]1C(=O)N2CCC3CCC1C32C)c1ccccc1 (stereo partly drawn) | > 100 µM (inactive) | > 100 µM (inactive) | > 100 µM (inactive) | – | > 100 µM (inactive) | > 100 µM (inactive) | > 100 µM (inactive) | > 100 µM (inactive) | > 100 µM (inactive) | > 100 µM (inactive) | > 100 µM (inactive) | > 100 µM (inactive) | > 100 µM (inactive) | > 100 µM (inactive) | > 100 µM (inactive) | > 100 µM (inactive) | > 100 µM (inactive) | > 100 µM (inactive)
